Laboratory results taken from US8088936B2, “Leukotriene B4 inhibitors” (Hoffman-La Roche Inc., priority 2009, dated 2012).

Tested on: Human leukemia HL-60 cells endogenously expressing BLT1 and BLT2 receptors
Test: Ca2+ flux assay for LTB4 antagonist assay (HL-60 FLIPR)
Assay type: cell-based
Conditions: retinoic acid induced HL-60 cells, inhibition of LTB4-induced Ca2+ flux, 30 min preincubation; read-out: LTB4 antagonism (HL-60 FLIPR)
Method: Assay of Compounds for Inhibition of LTB4 Activity
Ca^2+Flux Assay for LTB4 Antagonist Assay
Human leukemia HL-60 cells endogenously expressing BLT1 and BLT2 receptors were cultured in RPMI-1640 medium supplemented with 20% fetal bovine serum, 2 mM glutamine, 100 U/ml penicillin and 100 ug/ml streptomycin.
Seventy two hours prior to experiment cells are counted using ViaCount reagent, centrifuged and resuspended at 2.0×10^5 cells/ml density with the complete growth media containing 1 μM Retinoic Acid (Sigma).
On a day of the experiment loading buffer (Calcium-3 Assay Kit, Molecular Devices) was prepared by dissolving the contents of one vial (Express Kit) into 500 ml Hank's Balanced Salt Solution containing 20 mM HEPES and 5 mM probenecid. Equal volume of the loading buffer was mixed with the replacement buffer (Hank's Balanced Salt Solution containing 20 mM HEPES, 0.05% BSA and 5 mM probenecid). Retinoic Acid induced HL-60 cells were counted using ViaCount reagent, centrifuged and resuspended at 2.0×10^6 cells/ml density with the loading buffer/replacement buffer, dispensed into 384 well black/clear microplates (Falcon) (25 μl/well) and placed in a 37° C./5% CO2 incubator for 1 hour.
During the incubation, test compounds were prepared at 6× the desired concentration in HBSS/20 mM HEPES/0.05% BSA as well as LTB4 (Biomol) was prepared at 2.2× concentration in HBSS/20 mM HEPES/0.5% BSA buffer.
After the incubation, both the cell and compound plates were brought to the FLIPR and 5 μl of the diluted compounds were transferred to the cell plates by the FLIPR. Plates were then incubated for 30 min at room temperature. After the ½ hour incubation, plates were returned to the FLIPR and 25 μl of 2.2×LTB4 was added to the cell plates. During the assay, fluorescence readings were taken simultaneously from all 384 wells of the cell plate every 1.5 seconds. Five readings were taken to establish a stable baseline, then 25 μl (LTB4) of sample was rapidly and simultaneously added to each well of the cell plate. The fluorescence was continuously monitored before, during and after sample addition for a total elapsed time of 100 seconds. Responses (increase in peak fluorescence) in each well following agonist addition was determined. The initial fluorescence reading from each well, prior to ligand stimulation, was used a zero baseline value for the data from that well. The responses are expressed as % inhibition of the neutral control (neural control: wells that received buffer plus DMSO but no test compound).

Row | SMILES | IC50
1 | O=C(O)CCCOc1cccc(CCCCCCOc2cc(OCc3ccccc3)cc(-c3cccc(F)c3)c2)c1CCC(=O)O [Example 59, 4-[3-[6-(5-Benzyloxy-3′-fluoro-biphenyl-3-yloxy)-hexyl]-2-(2-carboxy-ethyl)-phenoxy]-butyric acid] | 132 nM
2 | CCOc1cc(OCCCCCCc2cccc(OCCCC(=O)O)c2CCC(=O)O)cc(-c2ccccc2)c1 [Example 44, 4-[2-(2-Carboxy-ethyl)-3-[6-(5-ethoxy-biphenyl-3-yloxy)-hexyl]-phenoxy]-butyric acid] | 1.26 nM
3 | O=C(O)CCCOc1cccc(CCCCCCOc2cc(C(=O)C3CCCC3)cc(-c3ccc4c(c3)OCO4)c2)c1CCC(=O)O [Example 73, 4-[3-[6-(3-Benzo[1,3]dioxol-5-yl-5-cyclopentanecarbonyl-phenoxy)-hexyl]-2-(2-carboxy-ethyl)-phenoxy]-butyric acid] | 0.77 nM
4 | CCOCc1cc(OCCCCCCc2cccc(OCCCC(=O)O)c2CCC(=O)O)cc(-c2ccc(Cl)cc2)c1 [Example 28, 4-{2-(2-Carboxy-ethyl)-3-[6-(5-ethoxymethyl-4′-chloro-biphenyl-3-yloxy)-hexyl]-phenoxy}-butyric acid] | 6.51 nM
5 | CCOc1cc(OCCCCCCc2cccc(OCCCC(=O)O)c2CCC(=O)O)cc(-c2ccc(S(C)(=O)=O)cc2)c1 [Example 51, 4-[2-(2-Carboxy-ethyl)-3-[6-(5-ethoxy-4′-methanesulfonyl-biphenyl-3-yloxy)-hexyl]-phenoxy]-butyric acid] | 2.1 nM
6 | O=C(O)CCCOc1cccc(CCCCCCOc2cc(OCc3ccccc3)cc(-c3ccc4c(c3)OCO4)c2)c1CCC(=O)O [Example 60, 4-[3-[6-(3-Benzo[1,3]dioxol-5-yl-5-benzyloxy-phenoxy)-hexyl]-2-(2-carboxy-ethyl)-phenoxy]-butyric acid] | 4.59 nM
7 | COCc1cc(OCCCCCCc2cccc(OCCCC(=O)O)c2CCC(=O)O)cc(-c2cscc2C)c1 [Example 13, 4-(2-(2-Carboxy-ethyl)-3-{6-[3-methoxymethyl-5-(4-methyl-thiophen-3-yl)-phenoxy]-hexyl}-phenoxy)-butyric acid] | 140 nM
8 | CN(C)Cc1cc(OCCCCCCc2cccc(OCCCC(=O)O)c2CCC(=O)O)cc(-c2cccc(S(C)(=O)=O)c2)c1 [Example 39, 4-{2-(2-Carboxy-ethyl)-3-[6-(5-dimethylaminomethyl-3′-methanesulfonyl-biphenyl-3-yloxy)-hexyl]-phenoxy}-butyric acid] | 70.8 nM

The remaining compounds from weak to strong by IC50, led by results:

Row | IC50 | SMILES
9 | 77.7 nM | O=C(O)CCCOc1cccc(CCCCCCOc2cc(OCc3ccccc3)cc(-c3ccsc3)c2)c1CCC(=O)O [Example 61, 4-[3-[6-(3-Benzyloxy-5-thiophen-3-yl-phenoxy)-hexyl]-2-(2-carboxy-ethyl)-phenoxy]-butyric acid]
10 | 6.24 nM | CCOCc1cc(OCCCCCCc2cccc(OCCCC(=O)O)c2CCC(=O)O)cc(-c2ccc(C(F)(F)F)cc2)c1 [Example 27, 4-{2-(2-Carboxy-ethyl)-3-[6-(5-ethoxymethyl-4′-trifluoromethyl-biphenyl-3-yloxy)-hexyl]-phenoxy}-butyric acid]
11 | 5.2 nM | CCOc1cc(OCCCCCCc2cccc(OCCCC(=O)O)c2CCC(=O)O)cc(-c2ccc(F)cc2)c1 [Example 48]
12 | 2.95 nM | CC(=O)c1cc(OCCCCCCc2cccc(OCCCC(=O)O)c2CCC(=O)O)cc(-c2ccc3c(c2)OCO3)c1 [Example 64, 4-[3-[6-(3-Acetyl-5-benzo[1,3]dioxol-5-yl-phenoxy)-hexyl]-2-(2-carboxy-ethyl)-phenoxy]-butyric acid]
13 | 2.66 nM | COCc1cc(OCCCCCCc2cccc(OCCCC(=O)O)c2CCC(=O)O)cc(-c2ccc(F)c(F)c2)c1 [Example 21, 4-[2-(2-Carboxy-ethyl)-3-[6-(3′,4′-difluoro-5-methoxymethyl-biphenyl-3-yloxy)-hexyl]-phenoxy]-butyric acid]
14 | 2 nM | CC(=O)c1cc(OCCCCCCc2cccc(OCCCC(=O)O)c2CCC(=O)O)cc(-c2ccsc2)c1 [Example 68, 4-[3-[6-(3-Acetyl-5-thiophen-3-yl-phenoxy)-hexyl]-2-(2-carboxy-ethyl)-phenoxy]-butyric acid]
15 | 1.37 nM | COCc1cc(OCCCCCCc2cccc(OCCCC(=O)O)c2CCC(=O)O)cc(-c2ccc(Cl)cc2)c1 [Example 11, 4-{2-(2-Carboxy-ethyl)-3-[6-(4′-chloro-5-methoxymethyl-biphenyl-3-yloxy)-hexyl]-phenoxy}-butyric acid]
16 | 0.24 nM | CN(C)Cc1cc(OCCCCCCc2cccc(OCCCC(=O)O)c2CCC(=O)O)cc(-c2ccc(Cl)cc2)c1 [Example 34, 4-{2-(2-Carboxy-ethyl)-3-[6-(4′-chloro-5-dimethylaminomethyl-biphenyl-3-yloxy)-hexyl]-phenoxy}-butyric acid]
